Test results taken from PubChem BioAssay (NCI).
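Cells were grown in 96-well plates and exposed to each compound for 48 hours at five concentrations; endpoints were interpolated linearly between bracketing concentrations, or set to the highest concentration if not reached. The concentration for full growth arrest is given as TGI.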

Tests used:
Assay in all cases: NCI anticancer screen, dose series, 48 h
MDA-MB-231 breast = system: MDA-MB-231 breast
MOLT-4 leukemia = system: MOLT-4 leukemia
M14 melanoma = system: M14 melanoma
SK-OV-3 ovarian = system: SK-OV-3 ovarian
T-47D breast = system: T-47D breast
CCRF-CEM leukemia = system: CCRF-CEM leukemia
RPMI-8226 leukemia = system: RPMI-8226 leukemia
SF-539 CNS = system: SF-539 CNS
PC-3 prostate = system: PC-3 prostate
SK-MEL-2 melanoma = system: SK-MEL-2 melanoma
DU-145 prostate = system: DU-145 prostate
SNB-75 CNS = system: SNB-75 CNS
TK-10 renal = system: TK-10 renal
NCI-H522 lung = system: NCI-H522 lung
OVCAR-3 ovarian = system: OVCAR-3 ovarian
NCI-H23 lung = system: NCI-H23 lung
HCT-116 colon = system: HCT-116 colon
OVCAR-4 ovarian = system: OVCAR-4 ovarian
MDA-MB-435 = system: MDA-MB-435
ACHN renal = system: ACHN renal
LOX IMVI melanoma = system: LOX IMVI melanoma
SK-MEL-28 melanoma = system: SK-MEL-28 melanoma
HCC-2998 colon = system: HCC-2998 colon
HT29 colon = system: HT29 colon
NCI-H460 lung = system: NCI-H460 lung
SF-268 CNS = system: SF-268 CNS
U251 CNS = system: U251 CNS
BT-549 breast = system: BT-549 breast
NCI-H226 lung = system: NCI-H226 lung
COLO 205 colon = system: COLO 205 colon
UACC-257 melanoma = system: UACC-257 melanoma
786-0 renal = system: 786-0 renal
A498 renal = system: A498 renal
SN12C renal = system: SN12C renal
NCI/ADR-RES ovarian = system: NCI/ADR-RES ovarian
K-562 leukemia = system: K-562 leukemia
KM12 colon = system: KM12 colon
UO-31 renal = system: UO-31 renal
MALME-3M melanoma = system: MALME-3M melanoma
EKVX NSCLC = system: EKVX NSCLC
RXF 393 renal = system: RXF 393 renal
HCT-15 colon = system: HCT-15 colon
UACC-62 melanoma = system: UACC-62 melanoma
HS 578T breast = system: HS 578T breast
OVCAR-8 ovarian = system: OVCAR-8 ovarian
MCF7 breast = system: MCF7 breast
SF-295 CNS = system: SF-295 CNS
SNB-19 CNS = system: SNB-19 CNS
CAKI-1 renal = system: CAKI-1 renal
IGROV1 ovarian = system: IGROV1 ovarian
HOP-62 NSCLC = system: HOP-62 NSCLC
HOP-92 NSCLC = system: HOP-92 NSCLC
MDA-N = system: MDA-N
A549 NSCLC = system: A549 NSCLC
OVCAR-5 ovarian = system: OVCAR-5 ovarian
SW-620 colon = system: SW-620 colon
SR leukemia = system: SR leukemia
SK-MEL-5 melanoma = system: SK-MEL-5 melanoma
HL-60(TB) leukemia = system: HL-60(TB) leukemia

SMILES: Cc1cn(C2CC(N=[N+]=[N-])C(CO)O2)c(=O)n(CCCCBr)c1=O (configuration not stated)
- TGI (MDA-MB-231 breast): > 100 µM
- TGI (MOLT-4 leukemia): > 100 µM
- TGI (M14 melanoma): > 100 µM
- TGI (SK-OV-3 ovarian): > 100 µM
- TGI (T-47D breast): > 100 µM
- TGI (CCRF-CEM leukemia): > 100 µM
- TGI (RPMI-8226 leukemia): > 100 µM
- TGI (SF-539 CNS): > 100 µM
- TGI (PC-3 prostate): > 100 µM
- TGI (SK-MEL-2 melanoma): > 100 µM
- TGI (DU-145 prostate): > 100 µM
- TGI (SNB-75 CNS): > 100 µM
- TGI (TK-10 renal): > 100 µM
- TGI (NCI-H522 lung): > 100 µM
- TGI (OVCAR-3 ovarian): > 100 µM
- TGI (NCI-H23 lung): > 100 µM
- TGI (HCT-116 colon): > 100 µM
- TGI (OVCAR-4 ovarian): > 100 µM
- TGI (MDA-MB-435): > 100 µM
- TGI (ACHN renal): > 100 µM
- TGI (LOX IMVI melanoma): > 100 µM
- TGI (SK-MEL-28 melanoma): > 100 µM
- TGI (HCC-2998 colon): > 100 µM
- TGI (HT29 colon): > 100 µM
- TGI (NCI-H460 lung): > 100 µM
- TGI (SF-268 CNS): > 100 µM
- TGI (U251 CNS): 44.6 µM
- TGI (BT-549 breast): > 100 µM
- TGI (NCI-H226 lung): > 100 µM
- TGI (COLO 205 colon): > 100 µM
- TGI (UACC-257 melanoma): > 100 µM
- TGI (786-0 renal): > 100 µM
- TGI (A498 renal): > 100 µM
- TGI (SN12C renal): > 100 µM
- TGI (NCI/ADR-RES ovarian): > 100 µM
- TGI (K-562 leukemia): > 100 µM
- TGI (KM12 colon): > 100 µM
- TGI (UO-31 renal): > 100 µM
- TGI (MALME-3M melanoma): > 100 µM
- TGI (EKVX NSCLC): > 100 µM
- TGI (RXF 393 renal): > 100 µM
- TGI (HCT-15 colon): > 100 µM
- TGI (UACC-62 melanoma): > 100 µM
- TGI (HS 578T breast): > 100 µM
- TGI (OVCAR-8 ovarian): > 100 µM
- TGI (MCF7 breast): > 100 µM
- TGI (SF-295 CNS): > 100 µM
- TGI (SNB-19 CNS): > 100 µM
- TGI (CAKI-1 renal): > 100 µM
- TGI (IGROV1 ovarian): > 100 µM
- TGI (HOP-62 NSCLC): > 100 µM
- TGI (HOP-92 NSCLC): > 100 µM
- TGI (MDA-N): > 100 µM
- TGI (A549 NSCLC): > 100 µM
- TGI (OVCAR-5 ovarian): > 100 µM
- TGI (SW-620 colon): > 100 µM

SMILES: CC[C@]1(Cc2ccc(OC)c(OC)c2)C2CC(C(=O)OC)ON2O[C@H](OCc2ccccc2)[C@@H]1OC(C)=O (some centres not stated)
- TGI (MDA-MB-231 breast): > 100 µM
- TGI (MOLT-4 leukemia): > 100 µM
- TGI (M14 melanoma): > 100 µM
- TGI (SK-OV-3 ovarian): > 100 µM
- TGI (T-47D breast): > 100 µM
- TGI (CCRF-CEM leukemia): > 100 µM
- TGI (RPMI-8226 leukemia): > 100 µM
- TGI (PC-3 prostate): > 100 µM
- TGI (SK-MEL-2 melanoma): > 100 µM
- TGI (DU-145 prostate): > 100 µM
- TGI (SNB-75 CNS): > 100 µM
- TGI (TK-10 renal): > 100 µM
- TGI (NCI-H522 lung): > 100 µM
- TGI (OVCAR-3 ovarian): > 100 µM
- TGI (NCI-H23 lung): > 100 µM
- TGI (HCT-116 colon): > 100 µM
- TGI (OVCAR-4 ovarian): > 100 µM
- TGI (MDA-MB-435): > 100 µM
- TGI (ACHN renal): > 100 µM
- TGI (SR leukemia): > 100 µM
- TGI (LOX IMVI melanoma): > 100 µM
- TGI (SK-MEL-28 melanoma): > 100 µM
- TGI (HCC-2998 colon): > 100 µM
- TGI (HT29 colon): > 100 µM
- TGI (NCI-H460 lung): > 100 µM
- TGI (U251 CNS): > 100 µM
- TGI (BT-549 breast): > 100 µM
- TGI (NCI-H226 lung): > 100 µM
- TGI (COLO 205 colon): > 100 µM
- TGI (UACC-257 melanoma): > 100 µM
- TGI (786-0 renal): > 100 µM
- TGI (A498 renal): > 100 µM
- TGI (SN12C renal): > 100 µM
- TGI (NCI/ADR-RES ovarian): > 100 µM
- TGI (K-562 leukemia): > 100 µM
- TGI (SK-MEL-5 melanoma): > 100 µM
- TGI (KM12 colon): > 100 µM
- TGI (UO-31 renal): > 100 µM
- TGI (MALME-3M melanoma): > 100 µM
- TGI (EKVX NSCLC): > 100 µM
- TGI (RXF 393 renal): > 100 µM
- TGI (HCT-15 colon): > 100 µM
- TGI (UACC-62 melanoma): > 100 µM
- TGI (OVCAR-8 ovarian): > 100 µM
- TGI (MCF7 breast): > 100 µM
- TGI (SF-295 CNS): > 100 µM
- TGI (SNB-19 CNS): > 100 µM
- TGI (CAKI-1 renal): > 100 µM
- TGI (IGROV1 ovarian): > 100 µM
- TGI (HOP-62 NSCLC): > 100 µM
- TGI (HOP-92 NSCLC): > 100 µM
- TGI (MDA-N): > 100 µM
- TGI (HL-60(TB) leukemia): 66.1 µM
- TGI (A549 NSCLC): > 100 µM
- TGI (OVCAR-5 ovarian): > 100 µM
- TGI (SW-620 colon): > 100 µM
